Target: T1, MAGL (Homo sapiens, UniProt Q99685)
T1 sequence (Q99685 1-303): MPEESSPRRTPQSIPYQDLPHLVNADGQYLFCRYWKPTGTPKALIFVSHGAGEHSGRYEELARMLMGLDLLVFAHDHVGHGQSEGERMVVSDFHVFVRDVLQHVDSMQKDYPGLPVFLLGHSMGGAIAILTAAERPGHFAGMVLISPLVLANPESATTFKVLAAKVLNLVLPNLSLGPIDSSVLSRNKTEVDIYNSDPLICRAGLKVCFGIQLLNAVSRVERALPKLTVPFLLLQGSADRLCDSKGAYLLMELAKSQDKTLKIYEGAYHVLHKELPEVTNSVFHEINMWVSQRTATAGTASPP
Assay: 2-AG assay (MAGL inhibitory activity, hydrolysis of 2-arachidonoylglycerol to arachidonic acid followed by mass spectrometry)
Type: biochemical
Settings: 8 μM 2-arachidonoylglycerol, 15 min pre-incubation, 30 min incubation at RT, RapidFire MS readout
In short: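 Arachidonic acid released from 8 μM 2-arachidonoylglycerol was quantified by online SPE triple-quadrupole MS (negative ESI, 303.1→259.1), normalised to d8-arachidonic acid internal standard. Reaction ran 30 min at RT after 15 min RT compound pre-incubation with […] MAGL in TRIS/EDTA/Tween-20 buffer, 2.5% DMSO.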

SMILES | IC50 [nM]
CN(C)S(=O)(=O)N1CC2(CN(C(=O)N3CC4(CC(n5cnc(C6CC6)n5)C4)C3)C2)C1 [Example 314, 6-[6-(3-cyclopropyl-1,2,4-triazol-1-yl)-2-azaspiro[3.3]heptane-2-carbonyl]-N,N-dimethyl-2,6-diazaspiro[3.3]heptane-2-sulfonamide] | 229
O=C(c1cnc(OCC2(C(F)(F)F)CC2)c(F)c1)N1CC2(CC(n3cnc(C4CC4)n3)C2)C1 [Example 26, [6-(3-cyclopropyl-1,2,4-triazol-1-yl)-2-azaspiro[3.3]heptan-2-yl]−[5-fluoro-6-[[1-(trifluoromethyl)cyclopropyl]methoxy]-3-pyridyl]methanone] | 19.8
O=C(O)c1ccccc1CN1CC2(C1)CN(C(=O)N1CC3(CC(n4cnc(C5CC5)n4)C3)C1)C2 [Example 313, 2-[[2-[6-(3-cyclopropyl-1,2,4-triazol-1-yl)-2-azaspiro[3.3]heptane-2-carbonyl]-2,6-diazaspiro[3.3]heptan-6-yl]methyl]benzoic acid] | 206
O=C(N1CC2(CC(n3cnc(C4CC4)n3)C2)C1)N1CC2(CN(Cc3ccc(S(=O)(=O)C(F)(F)F)cc3)C2)C1 [Example 469, [6-(3-cyclopropyl-1,2,4-triazol-1-yl)-2-azaspiro[3.3]heptan-2-yl]-[6-[[4-(trifluoromethylsulfonyl)phenyl]methyl]-2,6-diazaspiro[3.3]heptan-2-yl]methanone] | 0.48
O=C(O)c1ccccc1S(=O)(=O)N1CC2(CN(C(=O)N3CC4(CC(n5cnc(C6CC6)n5)C4)C3)C2)C1 [Example 338, 2-[[6-[6-(3-cyclopropyl-1,2,4-triazol-1-yl)-2-azaspiro[3.3]heptane-2-carbonyl]-2,6-diazaspiro[3.3]heptan-2-yl]sulfonyl]benzoic acid] | 2150

Further lines, results first:

IC50 [nM] | SMILES
0.15 | CS(=O)(=O)c1cc(F)cc(CC2CC3(C2)CN(C(=O)N2CC4(CC(n5cnc(C6CC6)n5)C4)C2)C3)c1 [Example 468, [6-(3-cyclopropyl-1,2,4-triazol-1-yl)-2-azaspiro[3.3]heptan-2-yl]-[6-[(3-fluoro-5-methylsulfonyl-phenyl)methyl]-2-azaspiro[3.3]heptan-2-yl]methanone]
673 | CCc1ncnn1C1CC2(C1)CN(C(=O)N1CC3(CC(Cc4ccc(F)cc4F)C3)C1)C2 [Example 328, [6-[(2,4-difluorophenyl)methyl]-2-azaspiro[3.3]heptan-2-yl]-[6-(5-ethyl-1,2,4-triazol-1-yl)-2-azaspiro[3.3]heptan-2-yl]methanone]
2.33 | O=C(N1CC2(CC(Cc3ccc(Cl)cn3)C2)C1)N1CC2(CC(n3cnc(C4(O)CC4)n3)C2)C1 [Example 404, [6-[(5-chloro-2-pyridyl)methyl]-2-azaspiro[3.3]heptan-2-yl]-[6-[3-(1-hydroxycyclopropyl)-1,2,4-triazol-1-yl]-2-azaspiro[3.3]heptan-2-yl]methanone]
15.5 | COc1ccccc1S(=O)(=O)N1CC2(CN(C(=O)N3CC4(CC(n5cnc(C6CC6)n5)C4)C3)C2)C1 [Example 251, [6-(3-cyclopropyl-1,2,4-triazol-1-yl)-2-azaspiro[3.3]heptan-2-yl]-[2-(2-methoxyphenyl)sulfonyl-2,6-diazaspiro[3.3]heptan-6-yl]methanone]
2.36 | O=C(N1CC(c2ccc(-c3n[nH]c(C4CC4)n3)cc2)C1)N1CC2(CC(n3cnc(C4CC4)n3)C2)C1 [Example 467, [6-(3-cyclopropyl-1,2,4-triazol-1-yl)-2-azaspiro[3.3]heptan-2-yl]-[3-[4-(5-cyclopropyl-1H-1,2,4-triazol-3-yl)phenyl]azetidin-1-yl]methanone]
475 | CC(C)(C)c1nc(C23CC(C(=O)N4CC5(CC(n6cnc(C7CC7)c6)C5)C4)(C2)C3)no1 [Example 162, [3-(5-tert-butyl-1,2,4-oxadiazol-3-yl)-1-bicyclo[1.1.1]pentanyl]-[6-(4-cyclopropylimidazol-1-yl)-2-azaspiro[3.3]heptan-2-yl]methanone]

From patent US20240199587A1, “HETEROCYCLIC COMPOUNDS” (Hoffmann-La Roche Inc., priority 2021, published 2024)
